Data taken from patent US10197552B2, “Monitoring cell-to-cell interactions” (Oakland University, priority 2015, dated 2019).

Legend:
Type in all cases: cell-based, human
[1] = system: adhesion of AML cells (KG-1) to HUVECs; assay: Number of adherent AML cells on HUVECs in co-culture, flow cytometric analysis; settings: treated KG-1/HUVEC co-cultures as, in comparison to untreated controls; FIG. 15
Procedure: (§1) As illustrated throughout Example 1, acute myeloid leukemia (AML) cells mediate endothelial cell (EC) activation. In this Example, the effects of anti-inflammatories, namely thalidomide and lenalidomide, to prevent AML induced EC activation were tested. KG-1 cells were pre-treated with 100 μM thalidomide or 1 μM lenalidomide (half of total dose) for 1-hour. Co-cultures were then established by adding the pre-treated KG-1 cells (1×10^6 cells) to cultures containing HUVECs (˜80% confluence) with the addition of the second half of the total dose of the respective anti-inflammatories. After 24-hours, E-selectin expression on HUVECs was measured as a marker of EC activation using flow cytometry. Untreated (i.e., no anti-inflammatory added) co-cultures of KG-1 on HUVECs were used as controls. The results are shown in FIG. 14, where the + indicates whether the co-culture was the control, was treated with thalidomide, or was treated with lenalidomide.
It was determined whether thalidomide and lenalidomide were able to reduce EC activation mediated AML cell adhesion. Adherent cells were collected from treated (as described above) and control co-cultures, and the numbers of adherent AML cells in each population were enumerated based on flow cytometric analysis. […]

[2] = system: E-selectin expression on HUVECs; assay: E-selectin expression on HUVECs in KG-1 co-cultures, flow cytometry (marker of EC activation); settings: KG-1/HUVEC co-culture, 24 hours; KG-1 pre-treated 1 hour with 100 μM thalidomide or 1 μM lenalidomide (half of total dose), second half added to co-culture; vs untreated co-cultures; FIG. 14
Procedure: as §1

HUVECs = assay: QCM monitoring of HUVEC activation by TNF-α, with microscope observation
Procedure: The gold QCM consists of a thin AT-cut quartz crystal wafer with a gold electrode on each side (9 MHz, non-polished with ˜1000 Å gold, geometric area is 0.28 cm^2, Beijing Chenjing Electronics Co., Ltd., China). The gold QCM was mounted between two biocompatible silicon O-rings to allow only one side of the gold electrode to be exposed to the liquid. The reaction chamber above the crystal was held with a 1 mL chlorinated polyethylene centrifugal tube. The device, being covered, was placed in a humidified CO2 incubator controlled at 5% CO2 and 37° C. to prevent evaporation from the culture holder.
An RQCM instrument (Maxtek Inc., USA) was used to simultaneously record resonant frequency (f0) and motional resistance (R1) of the QCM electrodes.
After being sterilized with 75% ethanol under UV light for 0.5 hours, the QCM culture-chamber was washed three times with PBS. Then, 500 μL of EGM-2 medium was added and the entire culture-chamber was put into the incubator. As soon as the QCM readout reached a stable baseline, 50 μL of EGM-2 medium containing freshly trypsinized 3×10^4 cells was added. All QCM measurements were performed in a static mode without stirring. The Δf0 and ΔR1 responses were simultaneously monitored in the process of cell attachment and growth in the next 24 hours.
Next, the EGM-2 medium was replaced by a medium containing 10% FBS and TNF-α with a specified concentration (ranging from 0 ng/ml to […]), allowing the HUVECs to suffer growth and activation up to 20 hours. After the concentration of HL-60 and KG-1 cells reached 5×10^6 cells mL^−1, they were collected from the medium by centrifugation at 1500 g for 5 minutes to remove IMDM, and were re-suspended with EGM-2 medium supplemented with 10% FBS. This was performed to reduce variations of the viscosity of the medium for measurements. The density of these suspension cells was determined with a hemacytometer. […]

[3] = system: adhesion of KG-1 cells to activated HUVECs; assay: QCM response to KG-1 cell binding on HUVECs activated with different TNF-α concentrations; settings: 25×10^4 KG-1 cells on HUVECs activated by TNF-α at different concentrations; FIGS. 12C, 12D
Procedure: Next, the EGM-2 medium was replaced by a medium containing 10% FBS and TNF-α with a specified concentration (ranging from 0 ng/ml to […]), allowing the HUVECs to suffer growth and activation up to 20 hours. After the concentration of HL-60 and KG-1 cells reached 5×10^6 cells mL^−1, they were collected from the medium by centrifugation at 1500 g for 5 minutes to remove IMDM, and were re-suspended with EGM-2 medium supplemented with 10% FBS. This was performed to reduce variations of the viscosity of the medium for measurements. The density of these suspension cells was determined with a hemacytometer.
Finally, 100 μL of the cell-suspending solution was added into the measuring chamber. The Δf0 and ΔR1 responses were simultaneously monitored for 22 hours.
These examples confirmed that AML cells adhere to activated HUVECs based on binding with E-selectin. It is possible that the extent of activation of HUVECs, which is closely related to TNF-α concentration, should have an influence on the binding of AML cells. FIGS. 12A and 12B show the QCM responses induced by the addition of KG-1 cells with the same concentration (i.e., 25×10^4) on activated HUVECs after stimulation of TNF-α with different concentrations. […]

[4] = maximum reported concentration of TNF-α (range 0 to 400 ng ml^−1), 3×10^4 HUVECs on QCM gold electrode

With Nc1cccc2c1CN(C1CCC(=O)NC1=O)C2=O (centres unmarked) [lenalidomide] the “numbers of adherent AML cells” value [1] was “significantly reduce” and the “E-selectin expression on HUVECs” value [2] was “significant reduction”.

O=C1CCC(N2C(=O)c3ccccc3C2=O)C(=O)N1 (centres unmarked) [thalidomide] was tested, and the “numbers of adherent AML cells” value [1] was “significantly reduce” and the “E-selectin expression on HUVECs” value [2] was “significant reduction”.

In the case of TNF-α, the “activation of HUVECs (shape-change, microscope images)” value (HUVECs; 40, 200 and 400 ng mL^−1 TNF-α, FIGS. 5B-5D) is reported as “effectively induce the activation of HUVECs in a dose dependent manner”, the “frequency shifts in Stage IV as compared to those in Stage I” value (HUVECs; [4]) is reported as 15% and the “resistance changes in Stage IV as compared to those in Stage I” value (HUVECs; [4]) is reported as 7%. The “QCM response shifts (|Δf0| and ΔR1 changes) on addition of KG-1 cells” value [3] was “increased with enhancement of TNF-α concentrations in the range of 2 ng mL^−1-200 ng mL^−1”.
